Reference: patent US20230151003A1, “COMPOUNDS AND METHODS OF USE” (Exelixis, Inc., priority 2020, published 2023)

Tests used:
[1] = biological target: T1, Mer (Homo sapiens, UniProt Q12866); test: Mer autophosphorylation ELISA in transient transfected 293A cells; assay type: cell-based; details: Table 3 Cellular Activities; MERTK-transfected 293A cells, phospho-Mer ELISA
T1 construct: host or cells: 293A cells (Thermo Fisher #R70507)
T1 sequence (Q12866 21-999): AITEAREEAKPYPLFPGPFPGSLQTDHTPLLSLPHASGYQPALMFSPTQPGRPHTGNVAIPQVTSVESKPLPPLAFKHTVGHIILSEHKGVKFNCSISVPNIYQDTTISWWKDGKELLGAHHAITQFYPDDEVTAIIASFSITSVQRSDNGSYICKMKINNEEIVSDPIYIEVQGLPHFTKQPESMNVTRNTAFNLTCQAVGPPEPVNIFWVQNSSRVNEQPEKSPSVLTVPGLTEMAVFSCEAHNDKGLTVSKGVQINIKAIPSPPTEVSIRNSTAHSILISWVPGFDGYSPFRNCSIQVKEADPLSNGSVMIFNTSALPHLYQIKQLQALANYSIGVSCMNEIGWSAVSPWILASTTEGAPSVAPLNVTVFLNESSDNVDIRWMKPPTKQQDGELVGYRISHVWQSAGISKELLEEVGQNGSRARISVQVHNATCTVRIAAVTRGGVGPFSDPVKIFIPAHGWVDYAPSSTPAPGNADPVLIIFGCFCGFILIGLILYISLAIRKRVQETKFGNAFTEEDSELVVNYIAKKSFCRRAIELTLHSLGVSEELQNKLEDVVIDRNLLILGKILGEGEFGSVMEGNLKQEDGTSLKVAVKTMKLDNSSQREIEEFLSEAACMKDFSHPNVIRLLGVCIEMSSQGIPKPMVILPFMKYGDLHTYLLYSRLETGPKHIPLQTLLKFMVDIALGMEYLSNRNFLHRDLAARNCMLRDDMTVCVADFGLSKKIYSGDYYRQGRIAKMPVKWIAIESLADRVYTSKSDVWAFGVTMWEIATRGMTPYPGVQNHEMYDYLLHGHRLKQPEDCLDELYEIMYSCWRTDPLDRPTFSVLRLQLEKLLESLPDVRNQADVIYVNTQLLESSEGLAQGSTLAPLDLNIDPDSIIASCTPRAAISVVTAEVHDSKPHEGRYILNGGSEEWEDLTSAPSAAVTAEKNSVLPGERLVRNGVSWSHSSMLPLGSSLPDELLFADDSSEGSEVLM
Method in brief: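 293A cells transiently transfected with human MERTK DNA, replated after 24 h, then treated 1 h with 8-point compound dilutions in serum-free medium (0.3% DMSO). Lysates assayed by phospho-Mer sandwich ELISA against phospho-Mer standard; DMSO = 100%, reference inhibitor = 0% activity; IC50 by 4-parameter logistic fit.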

[2] = biological target: Met (Homo sapiens, UniProt P08581); test: Met autophosphorylation ELISA in PC-3 cells; assay type: cell-based; design: endogenous in cells; host or cells: PC-3 prostate cancer cells (ATCC #CRL-1435); details: Table 3 Cellular Activities, HGF-stimulated, phospho-Met ELISA, read-out: c-Met IC50
Method in brief: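 Serum-starved (3 h) PC-3 cells pre-incubated 1 h with compound (8-point dose curve, 0.3% DMSO), then stimulated with 100 ng/mL recombinant human HGF for 10 min. Lysate phospho-Met (panTyr) measured by sandwich ELISA; IC50 from 4-parameter logistic fit, normalised to DMSO (100%) and reference-inhibitor (0%) controls.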

Chain of Met (P08581 25-1390): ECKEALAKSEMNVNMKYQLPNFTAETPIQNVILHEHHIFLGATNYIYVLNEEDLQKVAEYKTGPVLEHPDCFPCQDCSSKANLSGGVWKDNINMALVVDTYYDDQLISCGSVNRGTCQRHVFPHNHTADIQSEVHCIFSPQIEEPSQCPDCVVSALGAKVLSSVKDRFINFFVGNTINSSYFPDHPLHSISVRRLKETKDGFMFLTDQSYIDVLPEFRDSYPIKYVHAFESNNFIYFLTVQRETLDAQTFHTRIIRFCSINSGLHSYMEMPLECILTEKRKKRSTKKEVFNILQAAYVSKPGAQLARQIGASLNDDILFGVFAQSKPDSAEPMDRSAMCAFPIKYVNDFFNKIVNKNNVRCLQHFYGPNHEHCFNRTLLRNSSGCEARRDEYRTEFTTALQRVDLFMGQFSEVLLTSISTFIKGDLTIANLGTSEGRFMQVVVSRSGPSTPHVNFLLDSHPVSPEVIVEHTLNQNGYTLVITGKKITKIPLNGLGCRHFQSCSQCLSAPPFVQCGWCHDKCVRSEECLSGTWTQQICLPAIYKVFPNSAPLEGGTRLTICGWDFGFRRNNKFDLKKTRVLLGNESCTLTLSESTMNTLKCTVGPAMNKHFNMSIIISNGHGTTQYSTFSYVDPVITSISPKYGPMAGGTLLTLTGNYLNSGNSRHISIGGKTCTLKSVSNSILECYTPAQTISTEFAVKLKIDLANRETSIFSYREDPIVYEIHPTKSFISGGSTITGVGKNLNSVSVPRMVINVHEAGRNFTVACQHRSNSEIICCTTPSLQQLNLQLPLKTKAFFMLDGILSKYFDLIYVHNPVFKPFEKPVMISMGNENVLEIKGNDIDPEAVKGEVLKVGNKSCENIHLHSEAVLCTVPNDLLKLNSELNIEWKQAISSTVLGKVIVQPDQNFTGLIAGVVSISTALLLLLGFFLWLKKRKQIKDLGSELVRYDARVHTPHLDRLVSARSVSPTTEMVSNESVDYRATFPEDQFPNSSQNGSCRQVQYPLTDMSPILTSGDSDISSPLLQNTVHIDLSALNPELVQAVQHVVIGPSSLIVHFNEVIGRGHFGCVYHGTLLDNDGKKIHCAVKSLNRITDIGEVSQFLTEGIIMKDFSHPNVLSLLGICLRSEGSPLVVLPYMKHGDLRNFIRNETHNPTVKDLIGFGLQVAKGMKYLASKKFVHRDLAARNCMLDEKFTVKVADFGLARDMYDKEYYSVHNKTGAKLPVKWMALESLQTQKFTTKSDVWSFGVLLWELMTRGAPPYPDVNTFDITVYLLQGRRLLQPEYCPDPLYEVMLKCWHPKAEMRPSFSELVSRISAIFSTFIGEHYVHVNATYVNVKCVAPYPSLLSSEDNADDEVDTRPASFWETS

Row | Compound | IC50 [1] | IC50 [2]
1 | COc1cnc2c(Oc3ccc(NC(=O)c4cn(CCF)c(C)c(-c5ccc(C)s5)c4=O)cc3F)ccnc2c1 [Compound 329, 1-(2-Fluoroethyl)-N-[3-fluoro-4-[(7-methoxy-1,5-naphthyridin-4-yl)oxy]phenyl]-6-methyl-5-(5-methylthiophen-2-yl)-4-oxopyridine-3-carboxamide] | ≤ 100 nM | ≤ 100 nM
2 | COCc1nc(C)c(-c2ccc(C)o2)c(O)c1C(=O)Nc1ccc(Oc2ccnc3cc(OC)c(OC)nc23)c(F)c1 [Compound 117, N-[4-[(6,7-Dimethoxy-1,5-naphthyridin-4-yl)oxy]-3-fluorophenyl]-4-hydroxy-2-(methoxymethyl)-6-methyl-5-(5-methylfuran-2-yl)pyridine-3-carboxamide] | ≤ 100 nM | ≤ 100 nM
3 | COc1cnc2c(Oc3ccc(NC(=O)c4c(C)n(C)c(C)c(-c5cccs5)c4=O)cc3F)ccnc2c1 [Compound 166, N-[3-Fluoro-4-[(7-methoxy-1,5-naphthyridin-4-yl)oxy]phenyl]-1,2,6-trimethyl-4-oxo-5-thiophen-2-ylpyridine-3-carboxamide] | ≤ 100 nM | ≤ 100 nM
4 | COc1cnc2c(Oc3ccc(NC(=O)c4cnc(C)c(-c5cccs5)c4O)cc3F)ccnc2c1 [Compound 100, N-[3-Fluoro-4-[(7-methoxy-1,5-naphthyridin-4-yl)oxy]phenyl]-4-hydroxy-6-methyl-5-(2-thienyl)pyridine-3-carboxamide] | ≤ 100 nM | ≤ 100 nM
5 | COc1cc2nccc(Oc3ccc(NC(=O)c4c(C)nc(C)c(-c5ccnn5C)c4O)cc3F)c2nc1OC [Compound 108, N-[4-[(6,7-Dimethoxy-1,5-naphthyridin-4-yl)oxy]-3-fluoro-phenyl]-4-hydroxy-2,6-dimethyl-5-(2-methylpyrazol-3-yl) pyridine-3-carboxamide] | ≤ 100 nM | ≤ 100 nM
6 | COc1cc2nccc(Oc3ccc(NC(=O)c4cnc(C)c(-c5ccnn5C)c4O)cc3F)c2nc1OC [Compound 104] | ≤ 100 nM | ≤ 100 nM
7 | COc1cc2nccc(Oc3ccc(NC(=O)c4c(C)ncc(-c5cccs5)c4O)cc3F)c2nc1OC [Compound 123, N-[4-[(6,7-Dimethoxy-1,5-naphthyridin-4-yl)oxy]-3-fluorophenyl]-4-hydroxy-2-methyl-5-thiophen-2-ylpyridine-3-carboxamide] | ≤ 100 nM | ≤ 100 nM
8 | COc1cc2nccc(Oc3ccc(NC(=O)c4c(C)nc(C)c(-c5ccco5)c4O)cc3F)c2nc1OC [Compound 135, N-[4-[(6,7-Dimethoxy-1,5-naphthyridin-4-yl)oxy]-3-fluorophenyl]-5-(furan-2-yl)-4-hydroxy-2,6-dimethylpyridine-3-carboxamide] | ≤ 100 nM | ≤ 100 nM
9 | COc1cc2nccc(Oc3ccc(NC(=O)c4cnc(C)c(-c5ccc(C)s5)c4O)cc3F)c2nc1OC [Compound 94, N-[4-[(6,7-Dimethoxy-1,5-naphthyridin-4-yl)oxy]-3-fluoro-phenyl]-4-hydroxy-6-methyl-5-(5-methyl-2-thienyl) pyridine-3-carboxamide] | ≤ 100 nM | ≤ 100 nM
10 | COc1cc2nccc(Oc3cc(F)c(NC(=O)c4c(C)n(C)c(C)c(-c5ccco5)c4=O)cc3F)c2nc1OC [Compound 163, N-[4-[(6,7-Dimethoxy-1,5-naphthyridin-4-yl)oxy]-2,5-difluorophenyl]-5-(furan-2-yl)-1,2,6-trimethyl-4-oxopyridine-3-carboxamide] | ≤ 100 nM | ≤ 100 nM
11 | COc1cnc2c(Oc3ccc(NC(=O)c4cn(CCF)c(C)c(-c5ccsc5)c4=O)cc3F)ccnc2c1 [Compound 330, 1-(2-Fluoroethyl)-N-[3-fluoro-4-[(7-methoxy-1,5-naphthyridin-4-yl)oxy]phenyl]-6-methyl-4-oxo-5-thiophen-3-ylpyridine-3-carboxamide] | ≤ 100 nM | ≤ 100 nM
12 | CCc1ccc(-c2c(C)nc(C)c(C(=O)Nc3ccc(Oc4ccnc5cc(OC)c(OC)nc45)c(F)c3)c2O)o1 [Compound 147, N-[4-[(6,7-Dimethoxy-1,5-naphthyridin-4-yl)oxy]-3-fluorophenyl]-5-(5-ethylfuran-2-yl)-4-hydroxy-2,6-dimethylpyridine-3-carboxamide] | ≤ 100 nM | ≤ 100 nM

Continued, values first:

Row | IC50 [1] | IC50 [2] | Compound
13 | ≤ 100 nM | ≤ 100 nM | COc1cc2nccc(Oc3ccc(NC(=O)c4cnc(C)c(-c5ccoc5)c4O)cc3F)c2nc1OC [Compound 95, N-[4-[(6,7-Dimethoxy-1,5-naphthyridin-4-yl)oxy]-3-fluoro-phenyl]-5-(3-furyl)-4-hydroxy-6-methyl-pyridine-3-carboxamide]
14 | ≤ 100 nM | ≤ 100 nM | COc1cc2nccc(Oc3ccc(NC(=O)c4cnc(C)c(-c5cccs5)c4O)cc3F)c2nc1OC [Compound 90, N-[4-[(6,7-Dimethoxy-1,5-naphthyridin-4-yl)oxy]-3-fluoro-phenyl]-4-hydroxy-6-methyl-5-(2-thienyl)pyridine-3-carboxamide]
15 | ≤ 100 nM | 100 to 300 nM | COc1cc2nccc(Oc3ccc(NC(=O)c4cnc(C)c(-c5cc(C(F)(F)F)nn5C)c4O)cc3F)c2nc1OC [Compound 105]
16 | ≤ 100 nM | ≤ 100 nM | COc1cc2nccc(Oc3ccc(NC(=O)c4cc(Br)c(C)n(-c5ccc(F)cn5)c4=O)cc3F)c2nc1OC [Compound 55, 5-Bromo-N-[4-[(6,7-dimethoxy-1,5-naphthyridin-4-yl)oxy]-3-fluorophenyl]-1-(5-fluoropyridin-2-yl)-6-methyl-2-oxopyridine-3-carboxamide]
17 | ≤ 100 nM | ≤ 100 nM | C=CCc1ccc(-c2c(C)ncc(C(=O)Nc3ccc(Oc4ccnc5cc(OC)c(OC)nc45)c(F)c3)c2O)o1 [Compound 155, N-[4-[(6,7-Dimethoxy-1,5-naphthyridin-4-yl)oxy]-3-fluorophenyl]-4-hydroxy-6-methyl-5-(5-prop-2-enylfuran-2-yl)pyridine-3-carboxamide]
18 | ≤ 100 nM | ≤ 100 nM | COc1cc2nccc(Oc3ccc(NC(=O)c4cnc(C)c(-c5sccc5C)c4O)cc3F)c2nc1OC [Compound 103, N-[4-[(6,7-Dimethoxy-1,5-naphthyridin-4-yl)oxy]-3-fluoro-phenyl]-4-hydroxy-6-methyl-5-(3-methyl-2-thienyl) pyridine-3-carboxamide]
19 | ≤ 100 nM | ≤ 100 nM | COc1cc2nccc(Oc3ccc(NC(=O)c4c(C)nc(C)c(-c5ccc(C(C)C)o5)c4O)cc3F)c2nc1OC [Compound 148, N-[4-[(6,7-Dimethoxy-1,5-naphthyridin-4-yl)oxy]-3-fluorophenyl]-4-hydroxy-2,6-dimethyl-5-(5-propan-2-ylfuran-2-yl)pyridine-3-carboxamide]
20 | ≤ 100 nM | ≤ 100 nM | COc1cc2nccc(Oc3ccc(NC(=O)c4cnc(C)c(-c5cc(C)nn5C)c4O)cc3F)c2nc1OC [Compound 136, N-[4-[(6,7-Dimethoxy-1,5-naphthyridin-4-yl)oxy]-3-fluorophenyl]-5-(2,5-dimethylpyrazol-3-yl)-4-hydroxy-6-methylpyridine-3-carboxamide]
21 | ≤ 100 nM | 100 to 300 nM | C=C(C)c1ccc(-c2c(C)ncc(C(=O)Nc3ccc(Oc4ccnc5cc(OC)c(OC)nc45)c(F)c3)c2O)o1 [Compound 152, N-[4-[(6,7-Dimethoxy-1,5-naphthyridin-4-yl)oxy]-3-fluorophenyl]-4-hydroxy-6-methyl-5-(5-prop-1-en-2-ylfuran-2-yl)pyridine-3-carboxamide]
22 | ≤ 100 nM | ≤ 100 nM | COc1cnc2c(Oc3ccc(NC(=O)c4cnc(C)c(-c5ccco5)c4O)cc3)ccnc2c1 [Compound 129, 5-(Furan-2-yl)-4-hydroxy-N-[4-[(7-methoxy-1,5-naphthyridin-4-yl)oxy]phenyl]-6-methylpyridine-3-carboxamide]
23 | ≤ 100 nM | 100 to 300 nM | COc1cnc2c(Oc3ccc(NC(=O)c4cnc(C)c(-c5ccc(C)o5)c4O)cc3F)ccnc2c1 [Compound 97, N-[3-Fluoro-4-[(7-methoxy-1,5-naphthyridin-4-yl)oxy]phenyl]-4-hydroxy-6-methyl-5-(5-methyl-2-furyl)pyridine-3-carboxamide]
